Consider six molecules from publication PMC12271471, “Direct synthesis of mycophenolic acid aryl esters with antioxidant and antiproliferative properties” (Scientific Reports, 2025).

A short description of experiment [1]: DPPH radical scavenging test (colorimetric). As to conditions: concentration scavenging 50% of DPPH radicals; 10 min, room temperature, 517 nm; mean ± SD. The method, then:
Antioxidative properties of the obtained MPA derivatives were assessed chemically using a colorimetric DPPH test. The IC50 value represents the scavenging activity, defined as the concentration of a compound required to scavenge 50% of DPPH radicals.
Briefly, 400 µL solution of each synthesized compound with different concentrations (20–1000 µg/mL) was added to 1.6 mL DPPH solution (100 µmol/L). After shaking, the mixture was incubated at room temperature in the dark for 10 min, and then the absorbance was measured at 517 nm. The %Scavenging activity was calculated by using the formula: […]
The scavenging activity was expressed as IC50 value, defined as the concentration (mM) of compound required for scavenging DPPH radicals by 50%. IC50 values were determined by linear regression analysis using at least three different concentrations in duplicate.
Three different concentrations were prepared for each sample, while each one was analyzed in duplicate. […] The statistical analysis was performed using Tukey’s HSD test (p < 0.05). The statistical software Statistica 10 software (StatSoft Inc., Tulsa, OK, USA) was implemented for this analysis.

The subject of experiment [2] is T-Jurkat cells. In words: XTT cytotoxicity test on T-Jurkat cell line. The class given is cell-based, human. The method, then: (§1) Table 3 presents the IC50 values obtained from the XTT test on PBMCs and the T-Jurkat cell line, using MPA and MMF as standards. These values indicate the concentration of each compound required to reduce the viability of PBMCs (healthy cells) and T-Jurkat cells (T-cell leukemia) by 50% compared to the control. Cells were treated with compounds for 72 h (PBMCs) or 48 h (T-Jurkat), followed by a colorimetric XTT test. The results are illustrated in ESI Fig. S2 as a viability curve in relation to concentration.
Biological evaluation — PBMC and T-Jurkat cells
The T-Jurkat cell line (Clone E6-1, ATCC TIB-152), derived from a human acute T-cell leukemia, was obtained from the cell bank of the Department of Medical Immunology at the Medical University of Gdańsk. Before experimentation, the cells were thawed and cultured for about 7 days to reach the logarithmic phase of growth. The T-Jurkat cell line was suspended in a complete RPMI medium, which included RPMI-1640, 10% FBS, penicillin (100 U/ml), and streptomycin ([…]).
(§2) Human peripheral blood mononuclear cells (PBMCs) were isolated from buffy coats provided by anonymous, healthy volunteers with an average age of 35±4 years during routine transfusion procedure. These samples were received by the Authors from the Regional Centre for Blood Donation and Treatment in Gdańsk (Poland). […]
(§3) solely for PBMCs isolation. PBMCs were suspended in a complete X-VIVO medium, consisting of X-VIVO20, 10% heat-inactivated human AB serum, penicillin (100 U/ml), and streptomycin ([…]).
(§4) MPA derivatives preparation
(§5) To achieve the desired concentrations of the tested compounds, the substances were first dissolved in DMSO to reach a final concentration of 0.01 M. The solutions were then diluted in the appropriate additive-free medium (RPMI-1640 for T-Jurkat cells and X-VIVO20 for PBMCs) to obtain […]
(§6) Peripheral blood mononuclear cells were isolated by gradient centrifugation, as described previously. Buffy coats were diluted with phosphate-buffered saline (PBS, pH = 7.4, ThermoFisher Scientific) in a 1:1 ratio, layered at Ficoll-Paque™ PLUS (VWR International), and centrifuged at 800 × g for 20 minutes. The PBMC layer was collected and washed twice with PBS (1st wash: 600 × g for 10 minutes; 2nd wash: 600 × g for 5 minutes). Cell amount and viability were assessed using the Bio-Rad TC20™ automated cell counter combined with trypan blue staining.
(§7) XTT dye-based in vitro cytotoxicity test
(§8) The cytotoxic effects of mycophenolic acid (MPA) derivatives were assessed using an in vitro XTT-based assay (Roche). PBMCs in complete X-VIVO20 medium and T-Jurkat cells in complete RPMI-1640 medium were seeded into 96-well plates at a concentration of 5∙10^5 cells/50 µl per well. 50 µl of tested compounds were added to the experimental wells to achieve final concentrations of 50, 25, 10, 5, 1, 0.1, and 0.01 µM. The background control consisted of the medium without cells, while untreated cells served as the positive control. After incubating for 48 hours for T-Jurkat cells and 96 hours for PBMCs in a humidified atmosphere with 5% CO2 at 37°C, 50 µl of freshly prepared XTT reagent was added to all wells according to the manufacturer's instructions. The plates were then incubated for an additional 24 hours under the same conditions. The conversion of the water-soluble yellow XTT tetrazolium salt to orange formazan was quantified by measuring the optical density (OD) at 450 nm using an Agilent BioTek Epoch Microplate Spectrophotometer (Agilent Technologies), with a reference wavelength of 690 nm. The results were expressed as IC50 values for compounds that […]
(§9) inhibited cell viability by more than 50%. […]
PBMCs were suspended in a 15 mL centrifuge tube at a concentration of 10-30 × 10⁶ cells in 1 mL of PBS, then, 2 μL of 1 mM VPD 450 dye solution was added, incubated for 15 min at 37°C, washed with a 9-fold volume of warm PBS and centrifuged at 400 x g for 5 min. Then, the cells were suspended […]

The test system of experiment [3] is PBMCs. The experiment can be described thus: VPD450 proliferation test (flow cytometry) on PBMCs. The class given is cell-based, human. The settings on record: for EC50: Homo sapiens, PBMC, PBMCs stimulated with anti-CD3/anti-CD28 beads, 72 h, mean ± SD; for SI selectivity index PBMCs (IC50/EC50): ratio between IC50 (XTT) and EC50 (VPD450) on PBMCs. The method, then:
(§10) These values indicate the concentration of any compound at which proliferation of PBMCs (healthy cells), and T-Jurkat cells (T-cell leukemia), is inhibited by 50% compared to the control. Cells were treated with the compounds for 72 h (PBMCs) or 48 h (T-Jurkat), followed by a […] VPD450 test. The results are presented in ESI Fig. S3 as proliferation curves concerning concentration.
(§11) ESI Figure 3. Concentration-dependent change in proliferation under the treatment of ester derivatives of MPA. (A) VPD450-labelled PBMCs were cultured in the presence of different concentrations (100; 50; 25; 10; 1; 0.1, and 0.01 μM) of MPA, MMF, and ester derivatives, and stimulated with magnetic beads coated with anti-CD3 and anti-CD28 antibodies for 72 hours. (B) VPD450-labelled T-Jurkat cells were cultured in the presence of different concentrations (100; 10; 1; 0.1 and 0.01 μM) of MPA and ester derivatives for 48 hours. The plots were separated based on the type of ester derivative (P or MP). Cell proliferation was analyzed using flow cytometry. The results are expressed […]
(§12) (1 picture or pasted object on this page, not shown here) […]
(§13) inhibited cell viability by more than 50%. Each experiment was conducted in triplicate, and the final […]
(§14) VPD450 dye-based in vitro cell proliferation test
(§15) PBMCs and T-Jurkat cells were washed twice with warm PBS (37°C), re-suspended in fresh PBS at a final concentration of 10-30∙10^6 cells/ml, and labelled with 1 µl of VPD450 (BD Biosciences) at 37°C for 15 minutes, with vortexing every 5 minutes to ensure uniform staining. Subsequently, cells were washed with PBS, then with the complete medium (X-VIVO20 for PBMCs and RPMI-1640 for T-Jurkat cells), next re-suspended in fresh complete medium and seeded into 96-well plates at a concentration of 1∙10^6 cells per well. PBMCs were additionally stimulated with magnetic beads coated with anti-CD3 and anti-CD28 antibodies (Invitrogen) at a 2:1 cell-to-bead ratio. To the experimental wells, 100 µl of the MPA derivatives were added to achieve final concentrations of 50, 25, 10, 5, 1, 0.1, and 0.01 µM. In parallel, control wells containing stained but unstimulated cells and stained, stimulated cells were prepared at the same concentration. Cell proliferation was analyzed using an LSRFortessa flow cytometer (BD Biosciences) and Kaluza C Flow Cytometry Analysis Software (Beckman Coulter). […]
(§16) Statistical analysis was conducted using GraphPad Prism 9 (GraphPad Software Inc).
(§17) Differences between MMF, MPA and its new derivatives were assessed using a two-tailed unpaired Student’s t-test, with statistical significance defined as p < 0.05. EC50 and IC50 values were determined by fitting data to a four-parameter non-linear regression model in GraphPad Prism 9. Statistical significance was evaluated using the t-test.
For orientation: In flow cytometry, cells or beads pass a laser one at a time.

For experiment [4], the system named is PBMCs. In words: XTT cytotoxicity test on PBMCs. The settings on record: Homo sapiens, PBMC, 72 h (ESI: 96 h), viability, mean ± SD, read-out: Relative IC50 PBMCs (XTT). The class given is cell-based. As for the experimental part:
as §1
Biological evaluation — PBMC and T-Jurkat cells […]
as §2, §3, §4, §5, §6, §7, §8, §9
PBMCs were suspended in a 15 mL centrifuge tube at a concentration of 10-30 × 10⁶ cells in 1 mL of PBS, then, 2 μL of 1 mM VPD 450 dye solution was added, incubated for 15 min at 37°C, washed with a 9-fold volume of warm PBS and centrifuged at 400 x g for 5 min. Then, the cells were suspended in 10 mL of X-VIVO medium with 10% FBS and centrifuged again at 400 x g for 5 min. After suspending the cells in the complete medium, the staining level was checked using flow cytometry. The cells thus obtained were stimulated with anti-CD3/anti-CD28 antibodies as described previously (see VPD450 dye-based in vitro cell proliferation test). To perform the GMP test, a proper amount of GMP was added to each well to reach its final concentration of 50 μM, and then incubated for 72 hours. Proliferative […]
A general note: Formazan colour is commonly taken as a measure of viable cells.

Experiment [5] concerns T-Jurkat cells. The experiment can be described thus: VPD450 proliferation test (flow cytometry) on T-Jurkat cells. The format is cell-based, human. As to conditions: for EC50: Homo sapiens, T-Jurkat, 48 h, mean ± SD; for IS internal selectivity (EC50 PBMCs / EC50 T-Jurkat): ratio between VPD450 EC50 values for PBMCs and T-Jurkat cell line. The method, then: as §10, §11, §12, §13, §14, §15, §16, §17

With `O=C1O[C@H]([C@@H](O)CO)C(O)=C1O` [Ascorbic acid, reference compound], the IC50 (as a rule, the point on the concentration scale where inhibition reaches its midpoint) in experiment [1] came out at 545 µM.

In experiment [1], `Cc1c(C)c2c(c(C)c1O)CCC(C)(C(=O)O)O2` (stereo not drawn) [Trolox, reference compound] came in with an IC50 of 8 µM.

Consider `COc1cc(/C=C/C(C)=O)ccc1OC(=O)CC/C(C)=C/Cc1c(O)c2c(c(C)c1OC)COC2=O` [MP5], for which, in experiment [2] (Homo sapiens, T-Jurkat, 48 h, viability, mean ± SD, read-out: Relative IC50 T-Jurkat (XTT)), the IC50 amounted to 2.325 ± 0.004 µM. Also, in experiment [2] (ratio between XTT IC50 values for PBMCs and T-Jurkat cell line), the “IS internal selectivity (IC50 PBMCs / IC50 T-Jurkat)” value came to 13.203. Moreover, in experiment [3], the midpoint of the response, the EC50, lay at 11.406 ± 0.003 µM and the “SI selectivity index PBMCs (IC50/EC50)” value was 2.691. Also, the IC50 in experiment [4] stood at 30.698 ± 0.024 µM. Also, in experiment [5], the 50% effective concentration (EC50) (as a rule, the concentration that produces a half-maximal response) was found to be 1.08 ± 0.036 µM and the “IS internal selectivity (EC50 PBMCs / EC50 T-Jurkat)” value is recorded as 10.542. Also, the “SI selectivity index T-Jurkat (IC50/EC50)” value in experiment [5] (ratio between IC50 (XTT) and EC50 (VPD450) on T-Jurkat cell line) worked out at 2.149.

Take `C=C[C@@](C)(/C=C/c1ccc(OC(=O)CC/C(C)=C/Cc2c(O)c3c(c(C)c2OC)COC3=O)cc1)CCC=C(C)C` [P3]: the EC50 in experiment [3] was found to be 1.052 ± 0.004 µM; in experiment [5], 1.34 ± 0.035 µM. The “SI selectivity index PBMCs (IC50/EC50)” value in experiment [3] is 13.419. Besides, the IC50 stood at 14.117 ± 0.007 µM in experiment [4] and 20100 ± 258 µM in experiment [1].

Consider `COc1cc(CCC(C)=O)ccc1OC(=O)CC/C(C)=C/Cc1c(O)c2c(c(C)c1OC)COC2=O` [MP6], for which, in experiment [3], the EC50 turned out to be 1.162 ± 0.003 µM and the “SI selectivity index PBMCs (IC50/EC50)” value turned out to be 12.664. Besides, in experiment [4], the IC50 came out at 14.71 ± 0.045 µM. Further, half-maximal inhibition in experiment [1] (IC50) was put at 14900 ± 340 µM. For the same molecule, in experiment [5], the 50% effective concentration (EC50) stood at 0.662 ± 0.031 µM and the “IS internal selectivity (EC50 PBMCs / EC50 T-Jurkat)” value was determined as 1.755.

For the molecule `COc1c(C)c2c(c(O)c1C/C=C(\C)CCC(=O)Oc1ccc(/C=C/C(C)=O)cc1)C(=O)OC2` [P6], in experiment [3], the EC50 came out at 2.215 ± 0.004 µM and the “SI selectivity index PBMCs (IC50/EC50)” value is recorded as 3.989. Further, in experiment [4], the IC50 came out at 8.836 ± 0.02 µM. For the same molecule, half-maximal inhibition in experiment [1] (IC50) required 35800 ± 403 µM. Besides, in experiment [5], the response was half-maximal at 2.84 ± 0.033 µM (EC50) and the “IS internal selectivity (EC50 PBMCs / EC50 T-Jurkat)” value is listed as 0.780.
